Laboratory results from publication PMC3914206.

How the values were obtained:
Type in all cases: binding
panel of 442 kinases [1] = target: T1, panel of 442 kinases (Homo sapiens, UniProt P22694); conditions: Compound Concentration 10 µM
T1 construct: purchased KINOMEscan
Description: (§1) We assessed the selectivity of members of this scaffold using the KINOMEscan methodology across a near comprehensive panel of 442 kinases [[18,27]].

panel of 442 kinases [2] = target: T2, panel of 442 kinases (Homo sapiens, UniProt P23458); conditions: Compound Concentration 10 µM
T2 construct: purchased KINOMEscan
Description: as §1

panel of 442 kinases [3] = target: T3, panel of 442 kinases (Homo sapiens, UniProt Q8TDR2); conditions: kinase STK35; compound concentration 10 µM
T3 construct: purchased KINOMEscan
Description: as §1

panel of 442 kinases [4] = target: T4, panel of 442 kinases (Homo sapiens, UniProt Q9Y5S2); conditions: Compound Concentration 10 µM
T4 construct: purchased KINOMEscan
Description: as §1

T2 sequence (P23458 whole entry): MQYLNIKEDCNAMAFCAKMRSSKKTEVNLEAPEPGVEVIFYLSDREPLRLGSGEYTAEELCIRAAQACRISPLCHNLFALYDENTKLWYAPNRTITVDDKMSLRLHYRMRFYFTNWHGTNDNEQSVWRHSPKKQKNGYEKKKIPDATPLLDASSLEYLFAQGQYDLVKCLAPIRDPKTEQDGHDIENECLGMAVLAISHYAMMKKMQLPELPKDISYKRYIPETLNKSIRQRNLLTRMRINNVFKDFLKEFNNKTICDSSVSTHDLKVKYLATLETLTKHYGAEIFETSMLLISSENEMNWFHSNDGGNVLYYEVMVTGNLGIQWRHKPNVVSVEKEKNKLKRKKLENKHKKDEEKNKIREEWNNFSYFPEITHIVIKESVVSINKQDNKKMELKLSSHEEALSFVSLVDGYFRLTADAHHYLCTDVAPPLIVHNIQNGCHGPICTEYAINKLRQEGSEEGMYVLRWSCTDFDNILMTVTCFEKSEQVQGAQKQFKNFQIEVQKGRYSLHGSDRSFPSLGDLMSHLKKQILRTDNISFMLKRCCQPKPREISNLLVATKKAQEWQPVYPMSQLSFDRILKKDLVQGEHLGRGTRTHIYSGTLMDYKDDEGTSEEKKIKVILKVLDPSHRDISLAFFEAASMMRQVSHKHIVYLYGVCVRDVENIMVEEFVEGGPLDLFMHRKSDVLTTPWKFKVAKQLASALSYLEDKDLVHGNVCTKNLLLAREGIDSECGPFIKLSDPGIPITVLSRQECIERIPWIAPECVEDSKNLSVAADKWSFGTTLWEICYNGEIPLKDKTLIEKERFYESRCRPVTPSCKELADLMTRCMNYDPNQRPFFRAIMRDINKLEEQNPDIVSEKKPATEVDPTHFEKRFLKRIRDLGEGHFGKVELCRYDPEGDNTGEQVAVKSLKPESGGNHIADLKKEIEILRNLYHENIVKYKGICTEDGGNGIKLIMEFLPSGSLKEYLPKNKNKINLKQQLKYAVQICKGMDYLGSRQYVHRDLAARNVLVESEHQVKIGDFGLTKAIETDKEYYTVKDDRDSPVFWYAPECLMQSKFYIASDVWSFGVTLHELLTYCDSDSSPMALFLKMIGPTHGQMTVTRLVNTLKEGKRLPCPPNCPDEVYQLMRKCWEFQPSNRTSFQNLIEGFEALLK
T4 sequence (Q9Y5S2 whole entry): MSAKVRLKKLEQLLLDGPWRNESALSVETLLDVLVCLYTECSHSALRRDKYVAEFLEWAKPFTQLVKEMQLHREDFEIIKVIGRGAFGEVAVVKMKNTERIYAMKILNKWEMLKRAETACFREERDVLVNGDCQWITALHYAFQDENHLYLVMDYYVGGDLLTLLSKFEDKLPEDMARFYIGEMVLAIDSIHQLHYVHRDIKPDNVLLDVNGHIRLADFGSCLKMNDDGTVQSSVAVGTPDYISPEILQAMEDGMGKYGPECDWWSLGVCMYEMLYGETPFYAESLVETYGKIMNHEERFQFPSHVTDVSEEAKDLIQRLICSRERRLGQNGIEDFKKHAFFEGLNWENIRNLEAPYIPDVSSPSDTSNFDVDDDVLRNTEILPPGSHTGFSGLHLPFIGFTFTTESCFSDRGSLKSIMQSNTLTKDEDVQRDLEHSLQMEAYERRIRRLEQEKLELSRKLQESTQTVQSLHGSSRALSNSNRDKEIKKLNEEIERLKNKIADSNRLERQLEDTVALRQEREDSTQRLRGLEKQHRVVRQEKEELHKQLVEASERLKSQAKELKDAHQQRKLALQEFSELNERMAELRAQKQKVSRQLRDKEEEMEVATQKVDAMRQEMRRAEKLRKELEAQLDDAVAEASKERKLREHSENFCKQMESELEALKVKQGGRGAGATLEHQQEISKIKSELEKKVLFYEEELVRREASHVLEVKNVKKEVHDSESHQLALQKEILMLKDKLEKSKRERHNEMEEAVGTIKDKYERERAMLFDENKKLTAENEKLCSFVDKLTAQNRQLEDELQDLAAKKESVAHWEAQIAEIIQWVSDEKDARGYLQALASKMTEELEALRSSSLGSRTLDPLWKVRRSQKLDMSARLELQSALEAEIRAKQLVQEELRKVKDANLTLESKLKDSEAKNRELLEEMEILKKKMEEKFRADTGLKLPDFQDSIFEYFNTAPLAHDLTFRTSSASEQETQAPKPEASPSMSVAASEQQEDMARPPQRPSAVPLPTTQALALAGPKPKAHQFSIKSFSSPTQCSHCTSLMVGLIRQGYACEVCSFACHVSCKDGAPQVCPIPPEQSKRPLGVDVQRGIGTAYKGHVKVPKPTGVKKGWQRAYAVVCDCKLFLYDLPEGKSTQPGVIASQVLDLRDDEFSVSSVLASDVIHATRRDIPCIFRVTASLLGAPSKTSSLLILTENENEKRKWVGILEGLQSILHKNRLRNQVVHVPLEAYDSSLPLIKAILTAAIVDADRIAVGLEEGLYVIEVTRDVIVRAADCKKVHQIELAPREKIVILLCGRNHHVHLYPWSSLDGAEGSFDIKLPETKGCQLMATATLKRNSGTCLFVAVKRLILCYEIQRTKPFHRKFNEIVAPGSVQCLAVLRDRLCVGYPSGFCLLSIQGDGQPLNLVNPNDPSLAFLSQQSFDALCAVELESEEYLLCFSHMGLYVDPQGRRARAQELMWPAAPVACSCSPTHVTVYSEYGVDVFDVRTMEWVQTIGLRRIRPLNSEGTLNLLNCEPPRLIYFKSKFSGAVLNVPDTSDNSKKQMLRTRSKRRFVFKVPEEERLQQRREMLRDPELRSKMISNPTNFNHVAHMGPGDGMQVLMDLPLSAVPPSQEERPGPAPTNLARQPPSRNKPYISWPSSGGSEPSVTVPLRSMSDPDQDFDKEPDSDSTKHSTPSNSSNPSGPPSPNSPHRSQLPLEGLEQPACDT
T3 sequence (Q8TDR2 whole entry): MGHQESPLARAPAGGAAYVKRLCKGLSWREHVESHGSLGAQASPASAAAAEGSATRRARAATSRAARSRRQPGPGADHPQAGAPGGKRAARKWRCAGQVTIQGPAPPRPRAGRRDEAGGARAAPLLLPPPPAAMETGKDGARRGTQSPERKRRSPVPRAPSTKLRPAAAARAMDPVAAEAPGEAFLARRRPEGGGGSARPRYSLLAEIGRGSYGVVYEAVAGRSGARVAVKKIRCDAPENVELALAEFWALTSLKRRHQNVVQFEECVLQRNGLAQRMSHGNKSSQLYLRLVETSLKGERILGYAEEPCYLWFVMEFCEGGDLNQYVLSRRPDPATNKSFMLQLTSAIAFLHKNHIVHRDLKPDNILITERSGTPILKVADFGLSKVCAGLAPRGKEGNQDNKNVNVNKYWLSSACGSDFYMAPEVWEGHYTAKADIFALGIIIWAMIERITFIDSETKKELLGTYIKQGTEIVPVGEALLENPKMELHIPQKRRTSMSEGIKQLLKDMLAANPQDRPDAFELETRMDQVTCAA

| SMILES | KINOMEscan: PKAC-beta (panel of 442 kinases [1]) | KINOMEscan: JAK1(JH1domain-catalytic) (panel of 442 kinases [2]) | KINOMEscan: JAK1(JH2domain-pseudokinase) (panel of 442 kinases [2]) | % Ctrl, STK35 (panel of 442 kinases [3]) | KINOMEscan: MRCKB (panel of 442 kinases [4]) |
| --- | --- | --- | --- | --- | --- |
| COc1cc(C(=O)N2CCC(N3CCN(C)CC3)CC2)ccc1Nc1ncc2c(n1)N(C)c1ccccc1C(=O)N2C [15 (LRRK2-IN-1)] | 100 | 100 | 92 | 100 % Ctrl | 100 |
| COc1cc(C(=O)N2CCC(N3CCN(C)CC3)CC2)ccc1Nc1ncc2c(n1)N1CCc3cccc(c31)C(=O)N2C [Compound 24] |  |  | 62 | 100 % Ctrl |  |
| COc1cc(C(=O)N2CCC(N3CCN(C)CC3)CC2)ccc1Nc1ncc2c(n1)N(C1CCCC1)c1ccccc1C(=O)N2C [Compound 25, 11-cyclopentyl-2-((2-methoxy-4-(4-(4-methylpiperazin-1-yl)piperidine-1-carbonyl)phenyl)amino)-5-methyl-5H-benzo[e]pyrimido[5,4-b][1,4]diazepin-6(11H)-one] | 100 | 100 | 100 | 100 % Ctrl | 100 |
| CCOc1cc(C(=O)N2CCC(N3CCN(C)CC3)CC2)ccc1Nc1ncc2c(n1)N(C1CCCC1)c1ccccc1C(=O)N2C [Compound 26] | 100 | 100 | 98 | 96 % Ctrl | 100 |
